Measurements: patent US20250129009A1, “Compound and Method for Identifying Impurities Included Therein” (LG CHEM, LTD., priority 2022, published 2025)

Assay: Measurement of turbidity by UV/Vis spectroscopy (Method 1)
Assay type: physicochemical
Details: 20 wt % aqueous solution; for Absorbance: light at 290 nm, 1 mm cuvette, DI water reference
Method: A 20 wt % aqueous solution of the compound is analyzed by UV/Vis spectroscopy to measure the absorbance Abs to light at a wavelength of 290 nm, and the turbidity Tb is derived from the measured absorbance Abs by the following Equation 1.
A 20 wt % aqueous solution of the compound is analyzed by UV/Vis spectroscopy to measure the absorbance Abs to light at a wavelength of 290 nm, and a turbidity Tb is derived from the measured absorbance Abs by the following Equation 1.
The absorbance of light at a wavelength of 290 nm is confirmed by analyzing 5 types of turbidity standard solutions (0, 1, 10, 100, and 1000 NTU, respectively) by UV/Vis spectroscopy (using Agilent 8453, 200 to 1100 nm, resolution 2 nm, 1 mm cuvette). In this case, an empty cuvette cell is used as a reference for measurement. A calibration curve (Equation 1) is derived from the absorbance according to the 0 NTU to 1,000 NTU interval. (NTU: Nephelometric Turbidity Unit, water quality standard 1 NTU)
UV/Vis was measured for Samples 1 to 7 prepared in Preparation Example B above using Method 1 of the present disclosure, and the results are illustrated in FIG. 1. Further, values obtained by converting the measured absorbance (Abs) into turbidity using the following Equation 1 are shown in the following Table 1.
500 mg of each of Samples 1 to 7 were put into a vial, a 20 wt % aqueous solution was prepared using distilled water (DI water), and then UV/Vis spectroscopy (using Agilent 8453, 200 to 1100 nm, resolution 2 nm, 1 mm cuvette) was analyzed to confirm the absorbance of light at a wavelength of 290 nm. In this case, DI water was used as a reference for measurement.
The absorbance of light at a wavelength of 290 nm was confirmed by analyzing 5 types of turbidity standard solutions (0, 1, 10, 100, and 1000 NTU, respectively) by UV/Vis spectroscopy (using Agilent 8453, 200 to 1100 nm, resolution 2 nm, 1 mm cuvette). In this case, an empty cuvette cell was used as a reference for measurement.
A calibration curve (Equation 1) was derived from the absorbance according to the 0 NTU to 1,000 NTU interval. (NTU: Nephelometric Turbidity Unit, water quality standard 1 NTU)
Turbidity was derived by introducing the absorbance of Samples 1 to 7 confirmed in 1) above into Equation 1.

Absorbance | Turbidity (converted from absorbance at 290 nm by Equation 1 (calibration 0 to 1,000 NTU standards)) | Structure (SMILES)
0.1615 | – | C=CC(=O)OCC[N+](CCCC)(CCCC)CCCCCCCCCCCC [Sample 2]
0.3459 | – | C=CC(=O)OCC[N+](CCCC)(CCCC)CCCCCCCCCCCC [Sample 3]
0.2796 | 74 | C=CC(=O)OCC[N+](CCCC)(CCCC)CCCCCCCCCCCC [Sample 5]
